Assay: Human HepG2 cell viability assay in 384 well format
Type: toxicity, cell-based
Parameters: dose 125 nL, time 70.5 hour; cytotoxicity at 70.5 h: concentration not given beside the values
Conditions: HepG2 cells, read-out: Inhibition

Structure (SMILES) | cytotoxicity at 70.5 h
CCC(C)(NCC(=O)NC(=O)NC)c1nc(C)cs1 (centres undefined) | -4.2%
COc1ccc(C(=O)Cn2cnnc2[S+](C)[O-])cc1Cl (centres undefined) | -3.44%
Cc1ccc(NC(=O)NC(C)c2nc[nH]n2)cc1Cl (centres undefined) | -3.17%
C[S+]([O-])c1nncn1CC(=O)c1ccc(Br)cc1 (centres undefined) | -5.18%
Cc1nn(C)c(N(C)C)c1CNCc1cnn(Cc2ccccc2)c1 | -2.79%
O=C(NCc1ccccn1)NCC(c1ccco1)N1CCCC1 (centres undefined) | -1.51%
Cc1nc(CN2CCN(C(=O)CCc3cccc(Cl)c3)CC2)no1 | 13.5%
O=S(=O)(c1ccc(Cl)cc1)N1CCN(CCCn2ccnc2)CC1 | -1.12%
Cc1nn(C)c(N(C)C)c1CNCc1cccc(Cl)c1 | 0.245%
COc1ccc(CN(C)Cc2cccc(C#N)c2)c(OC)c1 | -3.94%
O=C(NCc1ccc(N2CCCC2)nc1)N1CCc2sccc2C1 | -0.866%
O=C(Nc1ccccn1)c1nc(N2CCCC2)ncc1Cl | -6.57%
COc1cc(CN(C)C(=O)NCc2cccc3c2OCO3)ccc1SC | -6.35%
COc1cc(CN(C)C(=O)NCc2nccs2)ccc1SC | -6.87%
Cc1ccc(C(=O)NCCNS(C)(=O)=O)c(=O)[nH]1 | -3.54%
Cc1ccc(C(=O)NCCCS(C)(=O)=O)c(=O)[nH]1 | 15.4%
CCOCCCNC(=O)N(C)Cc1ccc(SC)c(OC)c1 | 1.54%
O=C(c1cc2c([nH]c1=O)CCC2)N1CCCC1c1ccc(F)cc1 (centres undefined) | -3.95%
COCCN(CCC#N)S(=O)(=O)c1cc(F)cc(F)c1 | 3.86%
COCCN(CCC#N)S(=O)(=O)c1ccc(F)cc1Cl | 0.577%

Structure (SMILES) | cytotoxicity at 70.5 h
CC(C)n1c(C2CCCN(CC(N)=O)C2)nc2ccccc21 (centres undefined) | -1.68%
CSc1cc2c(cc1NC(=O)NCc1ccco1)OCCO2 | -5.54%
N#Cc1ccc(CNC2CCN(CCc3ccncc3)CC2)cc1 | -1.86%
CC(CNC(=O)N1CCS(=O)(=O)CC1)Cc1cccs1 (centres undefined) | -1.72%
CC(CNC(=O)N1CCN(c2ncccn2)CC1)Cc1cccs1 (centres undefined) | 17.5%
Oc1cccc(CNC2CCN(CCc3ccncc3)CC2)c1 | -1.4%
Fc1ccc(CNC2CCN(CCc3ccncc3)CC2)cc1F | -3.84%
Cc1cccc(CNC2CCN(CCc3ccncc3)CC2)c1C | -3.09%
CC(CNC(=O)N1CCC(CO)CC1)Cc1cccs1 (centres undefined) | -3.99%
Cc1cnc(CN2CCCC(c3nc4ccccc4n3C(C)C)C2)o1 (centres undefined) | 20.6%
O=C1CCc2cc(OCCN3CCc4cncnc4C3)ccc2N1 | -3.56%
Cc1noc(C)c1CNc1cccc(C(=O)N2CCCC(O)C2)c1 (centres undefined) | -9.24%
COc1ccc(CC(=O)N(C)C2CCN(C)C2=O)cc1F (centres undefined) | -6.33%
Cc1ncsc1-c1nc(-c2cccc(CN3CCOCC3)c2)no1 | -6.25%
CCN(CC(=O)Nc1c(C)n[nH]c1C)CC(O)c1ccc(C)cc1 (centres undefined) | 13.8%
CSC1(CNc2ncc(Br)cn2)CCOCC1 | -0.0448%
Cc1n[nH]c(C2CN(CCCOc3ccc(F)cc3)CCO2)n1 (centres undefined) | -12.3%
CC(C)Nc1ncccc1C(=O)NCc1ncc[nH]1 | -1.28%
CNC(=O)Cc1nc(CNc2ccc(SC)c(F)c2)cs1 | -0.256%
Cc1ccc(F)c(NCC(C)(C)S(C)(=O)=O)c1 | -2.22%

Structure (SMILES) | cytotoxicity at 70.5 h
COc1ccc(F)c(NCC(C)(C)S(C)(=O)=O)c1 | -4.68%
CCN(C)S(=O)(=O)N(CC)Cc1cccc(-c2ccncc2)c1 | -4.01%
CCc1n[nH]c(C2CN(CCCOc3cccc(C)c3)CCO2)n1 (centres undefined) | -3.37%
CCN(CC(=O)Nc1c(C)nn(C)c1C)CC(O)c1ccc(C)cc1 (centres undefined) | -5.69%
O=C(c1ccoc1)N1CCCCC1c1nc[nH]n1 (centres undefined) | -1.78%
CS(=O)(=O)CCCN1CCOC2(CCc3ccccc32)C1 (centres undefined) | 0.769%
c1ccc(CCN2CCOC3(CCc4ccccc43)C2)nc1 (centres undefined) | -15.8%
O=C(c1ccccc1)C1CCN(Cc2cc3c(cc2O)CCC3)CC1 | 33.9%
CC(=O)c1c[nH]c(C(=O)N2CCN(C(C(N)=O)c3ccccc3)CC2)c1 (centres undefined) | 47.9%
Cc1nc2ccccc2n(Cc2nnnn2C2CC2)c1=O | -5.13%
CCN(C(=O)c1ccccc1I)C1CC(=O)NC1=O (centres undefined) | 4.4%
COc1cccc(CN(C(=O)Nc2nncs2)C2CCC(O)CC2)c1 (centres undefined) | 0.476%
CCCC(=O)NCC(=O)NC1CC(C)(C)Cc2oc(C)cc21 (centres undefined) | -5.41%
CN(Cc1ccncc1)C(=O)c1ccc(F)c(NS(C)(=O)=O)c1 | -4.24%
O=C(Nc1ccnn1C1CCCC1)c1ccc(NC2CC2)nc1 | 3.1%
Cc1cc(NC(=O)CN2CCCC(Cn3cncn3)C2)on1 (centres undefined) | -3%
CC(C)(O)CNC(=O)c1sccc1Br | 0.0507%
Cc1cc(C(=O)N2CCOC(c3nc(C)n[nH]3)C2)[nH]n1 (centres undefined) | 3.96%
COc1cc2c(cc1CNCc1ccnc(-n3cccn3)c1)OC(C)C2 (centres undefined) | -12.6%
